Measurements taken from patent US10568320B2, “Biologically-based control methods for insect pests” (The United States of America, as represented by the …, priority 2017, dated 2020).
“Also recorded” adds a separate entry of the source.

Assays:
[1] = tested on: mature female alates (MFAs); assay: Injection into MFA abdomen: wing loss (dealation); assay type: in vivo, Solenopsis invicta; details: 100 nL of a 1.0% saline solution injected into the MFA abdomen
Source text: While the MFAs are in their mother colony, the queen releases primer pheromones that inhibit wing loss (sometimes referred to herein as “dealation”), development of ovaries, wing muscle histolysis, and pheromone production. This release prevents reproductive/resource competition between the MFAs and the mother queen. If MFAs are removed from the colony, they become disinhibited and eventually (e.g., within days) lose their wings and start the physiological processes (e.g., wing loss and ovariole development). MFA also become disinhibited when they leave the colony on a mating flight; however, in this case the now NMQs lose their wings within minutes of landing and initiate the above mentioned physiological/biochemical changes (e.g., wing loss and ovariole development). We know from previous experiments that mating is the trigger, not mating flight initiation or the act of flying (Burns, S. N., et al. (2002) Identification and action of juvenile hormone III from sexually mature alate females of the red imported fire ant, Solenopsis invicta. Journal of Insect Physiology 48: 357-365; Burns, S. N., et al. (2005), The effect of age and social environment on dealation in Solenopsis invicta (Hymenoptera: Formicidae) female […]. […] Burns, S. N., et al. […]

[2] = tested on: mature female alates (MFAs); assay: Injection into MFA abdomen: ovariole development and egg-laying; assay type: in vivo, Solenopsis invicta; details: 100 nL of a 1.0% saline solution (1 microgram) injected
Source text: Two measures of ovariole development were used. […] Measurement of ovariole area in the same samples gave a quantitative measure of ovariole development. […] Within the context of a colony this effect would be in direct conflict with the colony queen. Eggs laid would not be fertile and therefore develop into males. Queen pheromone is also produced by […], which would act to reduce the fecundity of the colony queen. For example, in polygyne colonies the higher the number of queens the lower is the mean egg-laying rate/queen due to the presence of excess queen pheromone (see Vander Meer, R. K., et al. (1992), A comparison of queen oviposition rates from monogyne and polygyne fire ant, Solenopsis invicta, colonies.

fire ant workers [3] = assay: Droplet feeding of worker groups: mortality over 24 h and concentration series; assay type: in vivo
Protocol: To determine how quickly the tyramine and acetyl tyramide act, 60 workers were allowed to feed on tyramine (FIG. 8A) or acetyl tyramide (FIG. 8B) dissolved at about 1% in 10% sucrose solution. The control and treatments were presented to the worker ants as droplets on phase separation filter paper. Consumption of the droplets was readily observed. Mortality was monitored for each of the first 10 hours and then at 24 hours. […] Tyramine and acetyl tyramide had >50% and >40% mortality, respectively within the 24 h time period of the experiment. […] This distribution is a cornerstone of pest ant baits. To test this hypothesis, a similar experiment was conducted. Workers were allowed to feed on the treatment and control solutions and were then transferred to another container with unfed nestmates. In all cases, it was observed that the treatment fed workers regurgitated the treatment and sucrose solutions to their unfed nestmates through the classic mechanism of trophallaxis (data not shown). Thus, normal worker behavior necessary for bait development was not affected by the treatments under these experimental conditions.
One criteria for an effective pest ant Active Ingredient (AI) is maintenance of activity over 1-3 orders of magnitude, because as the bait is distributed from one ant to another the material is diluted. The AI must maintain activity until all individuals in the colony (e.g., workers, brood and sexuals including the queen) have received the AI. […] Journal of Economic Entomology 99(5): 1739-1748). The 0.01% had >24 h delay in mortality.

4th instar sexual larvae = assay: Direct (hand) feeding of 4th instar sexual larvae; assay type: in vivo, Solenopsis invicta
Source text: It was concluded that the 4th instar larvae are refractory to the mortality effects observed when workers are fed tyramine.

[4] = tested on: female alates and workers; assay: Feeding of queenless colony sub-units with immature female alates; assay type: in vivo, Solenopsis invicta
Source text: In this example, whether feeding tyramine and/or the tyramides to colony sub-units that contained female […] would result in inappropriate wing loss, as well as ovariole development. Wing muscle histolysis, and queen pheromone production normally accompanies wing loss (see Vargo, E. L. (1998), Primer pheromones in ants, pp. 293-313. In […]. Breed, […] and M. L. Winston (eds.), Pheromone communication in social insects ants, wasps, bees, and termites. […], Boulder, Colo.). […] The data supports and confirms that workers are feeding the treatments to the female […], which in turn stimulates wing loss in the […]. FIG. 11B is from the same experiment confirming the worker mortality effects of the tyramine and tyramide treatments.

fire ant workers [5] = assay: Five biogenic amines fed to fire ant workers as droplets; assay type: in vivo, Solenopsis invicta; details: 1% in 10% sucrose, 48 h
Protocol: Tyramine is one of five biogenic amines that may be found in insects (e.g., dopamine, histamine, octopamine, serotonin, and tyramine). The experiment in this example tests whether fire ant worker mortality effects observed with tyramine may be a general result of the ants ingesting greater than normal amounts of a biogenic amine. To test this hypothesis groups of 20 fire ant worker ants were starved for 24 hours and fed a 1% (w/v) biogenic amine in 10% sucrose solution. Treatments and sucrose were presented to the worker ants as a 25 microliter droplet on a 2 cm^2 piece of silicon treated filter paper. Each treatment and control were performed in triplicate for a total of 60 worker ants per treatment and control. Mortality was monitored for the first 7-8 h after introduction of the sucrose solutions, then at 24 h. The feeding/monitoring sequence was repeated for another 24 h period for a total of 48 h. The results are shown in FIG. 12A-12B in the form of Kaplan-Meier mortality curves.

[6] = tested on: Tawny crazy ant (Nylanderia fulva) workers; assay: Species specificity droplet feeding: tawny crazy ant workers; assay type: in vivo; details: 1% in 10% sucrose, 24 h
Source text: (§1) To evaluate the effect of tyramine on another pest ant species triplicate groups of 20 Tawny crazy ant (Nylanderia fulva) workers and triplicate groups of 20 fire ant workers were setup. Corresponding controls for both pest ant species were workers fed 10% sucrose solution. The treatment was 1% tyramine in 10% sucrose (weight-to-volume). The control and treatments were presented to the worker ants as droplets on phase separation filter paper. Consumption of the droplets was readily observed. Mortality was monitored for each of the first 10 hours and then at 24 hours. The results are shown as mean±standard error of accumulated mortality for controls and treatments at 24 h in FIG. 13. […] These unexpected results illustrate that the toxicity effects of tyramine on fire ants are not automatically extended to other ant species.

fire ant workers [7] = assay: Species specificity droplet feeding: fire ant workers; assay type: in vivo, Solenopsis invicta; details: 1% in 10% sucrose, 24 h
Source text: as §1

female sexuals (alates) = assay: Worker attraction to poison sac extracts of dealates (queen pheromone bioassay); assay type: in vivo, Solenopsis invicta; details: extracts from dealates of fed sub-colonies
[8] = tested on: monogyne queenright colonies; assay: Feeding of monogyne queenright colonies: worker and queen mortality; assay type: in vivo, Solenopsis invicta; details: 1% in 10% sucrose, 27 d
Source text: FIGS. 24A and 24B show results for the sucrose (10%) control and two treatments, tyramine (1%) and N-methyl-tyramine (1%), both dissolved in 10% sucrose. The control and test colonies were monogyne queenright colonies, containing a single queen, brood and workers started in the laboratory from newly mated queens collected in the field. The mean number of workers per colony was 8,400±400. […] Previous experiments used queenless sub-colonies, rather than the queenright colonies in these experiments. The mortality effect on colony queens was unexpected, since worker fire ants are completely sterile and cannot reproduce even if the queen dies. Therefore, when the reproductive queen dies no more brood is produced and the colony is no longer functional—it is considered dead. […] Therefore, 80% of the treated colonies were considered dead.

[9] = Solubility in aqueous solution; assay type: physicochemical
fire ant workers [10] = assay: Example 14 feeding experiments: fire ant worker mortality

Structure (SMILES): NCCc1ccc(O)cc1 [tyramine]
- dealation (wing loss) compared to the control [1]: significantly faster and inappropriate dealation
- ovariole development, ovariole area, compared to controls [2]: caused significant ovariole development
- ovariole development, ovary rank 1-4, compared to the control [2]: significant ovariole development
- delay in mortality (fire ant workers [3]; 0.01% concentration): > 24 h
- mortality delay (fire ant workers [3]; 0.1% concentration): ≥ 5 h
- mortality delay (fire ant workers [3]; 1.0% concentration): ≥ 5 h
- worker mortality at a dilution factor of 100 (fire ant workers [3]; about 0.01% (weight-to-volume)): significant worker mortality
- worker mortality compared with sucrose control (Kaplan-Meier, Log-rank) (fire ant workers [3]; about 1% in 10% sucrose, 24 h): significantly greater worker mortality than the sucrose control
- worker mortality within the 24 h time period (fire ant workers [3]; in vivo): > 50%
- mortality / sickness of 4th instar sexual larvae (4th instar sexual larvae; fed once, 80 nL max of about 1% w/v in 10% sucrose, N=10): All sexual larvae fed tyramine died by day 5
- amount fed at which fire ant sexual larvae die (4th instar sexual larvae; in vivo): 0.8 micrograms
- wing loss of female alates ([4]; fed in 10% sucrose continuously for 7 days, via workers): rapid wing loss
- ovariole development of female alates fed by workers ([4]; sub-colonies): commencement of ovariole development
- worker mortality, tyramine HCl versus tyramine free base (fire ant workers [5]): not significantly different
- accumulated worker mortality compared to sucrose control [6]: did not have significant mortality compared to its sucrose control; also recorded: no effect on crazy ant workers
- accumulated worker mortality compared to sucrose control (fire ant workers [7]): significant mortality compared to its sucrose control
- worker attraction to poison sac extracts versus N,N-dimethyl tyramine treatment and controls (female sexuals (alates)): significantly different from those from the N,N-dimethyl tyramine treatment and the sucrose and hexane controls
- % worker mortality at the end of the experiment versus control [8]: significantly different from the corresponding controls
- fate of colony queens (five replicates) [8]: one colony queen survived out of five
- queen mortality at the end of the experiment versus control [8]: significantly different from the corresponding controls
- colonies considered dead ([8]; five colonies): 80%
- water solubility [9]: water soluble
- solubility maximum ([9]; solution): 1%
- fire ant worker mortality versus 10% sucrose control (fire ant workers [10]; 0.01% in 10% sucrose): significantly different from the 10% sucrose control
- fire ant worker mortality versus 10% sucrose control (fire ant workers [10]; 0.1% in 10% sucrose): significantly different from the 10% sucrose control
- fire ant worker mortality versus 10% sucrose control (fire ant workers [10]; 1.0% in 10% sucrose): significantly different from the 10% sucrose control
- concentration of solution fed to workers that led to mortality after 7 days (fire ant workers [10]; estimated from feeding studies): 0.01 micrograms per microliter
